What all share (format): in vivo, mouse
The subject of one assay is ROCK1. Put plainly: Western blot of penis homogenates, ROCK1. Conditions: SCD mice, haptoglobin 400 mg/kg s.c. 1 month; compared to WT-vehicle. The method, then:
(§1) All mice strains were originally purchased from Jackson Laboratories (Bar Harbor, ME). Characterization and breeding were performed at the Multidisciplinary Center for the Investigation of Biological Science in Laboratory Animals of University of Campinas. C57BL/6 male mice (wild-type, WT) and Berkeley transgenic SCD mice, aged 3 to 4 months-old, were used. Mice were housed three per cage on a 12 h light-dark cycle. SCD male mice were treated with treatment with haptoglobin (400 mg/kg, subcutaneous) or vehicle of Monday, Wednesday and Friday for a period of 1 month (24).
(§2) Corpus cavernosum tissue was homogenized in lysis buffer and centrifuged at 12,000 g for 20 minutes at 4° C. Homogenates containing […] total proteins were run on 4-20% Tris-HCl gels (Bio-Rad Laboratories, Hercules, CA, USA) and transferred to a nitrocellulose membrane. Nonfat dry milk 5% (Bio-Rad) in Tris-buffered saline/Tween was used for 1 hour at 24° C. to block nonspecific binding sites. […] Densitometry was analyzed using the Image J Software (National Institute of Health, Bethesda-MD, USA). Quantified densitometry results were normalized to β-actin. Quantified densitometry results of eNOS phosphorylated at Ser1177 were normalized to total eNOS.
In general terms: A western blot detects proteins with antibodies after separation by electrophoresis.

In another assay the test system is PDE5. Put plainly: Western blot of penis homogenates, PDE5. Conditions: SCD mice, haptoglobin 400 mg/kg s.c. 1 month, vs SCD-vehicle. The method, then: as §1, §2
Assay [1] has as its system corpus cavernosum strips from SCD mice. Put plainly: Concentration-response contraction curves to phenylephrine and KCl in cavernosal strips. Conditions: SCD mice treated with haptoglobin 400 mg/kg s.c. 1 month, mean ± SEM. Here is the method:
as §1
Strips of mouse corpus cavernosum were mounted in a 7-ml organ system containing Krebs solution at 37° C., continuously bubbled with a mixture of 95% O2 and 5% CO2 (pH 7.4), and suspended between two metal hooks. One hook was connected to a force transducer and the other acted as a fixed attachment point. Tissues were allowed to equilibrate for 60 min under a resting tension of 2.5 mN. Isometric force was recorded using a PowerLab 400™ data acquisition system (Software LabChart, version 7.0, AD Instrument, MA, USA). Cumulative concentration-response curves were constructed for the muscarinic agonist acetylcholine (ACh; 10^−9 to 10^−5 M) and sodium nitroprusside (SNP; 10^−8 to 10^−4 M) in cavernosal strips pre-contracted with phenylephrine (10^−5 M). […]

The test system is the same in assay [2]. The assay is described as follows: Electrical-field stimulation (EFS)-induced nitrergic relaxations of cavernosal strips. Conditions: 2-32 Hz, guanethidine and atropine pretreated strips, haptoglobin 400 mg/kg s.c. 1 month. The method, then: as §1
EFS was applied on cavernosal strips placed between two platinum ring electrodes connected to a Grass S88 stimulator (Astro-Med Industrial Park, RI, USA). EFS was conducted at 50 V, 1 ms pulse width and trains of stimuli lasting 10 sec at varying frequencies. In order to study the nitrergic cavernosal relaxations, tissues were pretreated with guanethidine (3×10^−5 M; to deplete the catecholamine stores of adrenergic fibers) and atropine (10^−6 M; to produce muscarinic antagonism) for 30 minutes prior to pre-contraction with phenylephrine (10^−5 M). When a stable contraction level was attained, a series of EFS-induced relaxations were constructed (2-32 Hz).

In the next assay the test system is p-eNOS (Ser-1177). Put plainly: Western blot of penis homogenates, p-eNOS (Ser-1177). The following applies: SCD mice, haptoglobin 400 mg/kg s.c. 1 month; normalized to eNOS; P<0.05. Here is the method:
as §1, §2

Another assay relates to eNOS. The assay is described as follows: Western blot of penis homogenates, eNOS. The following applies: SCD mice, haptoglobin 400 mg/kg s.c. 1 month; normalized to β-actin; P<0.05. Here is the method: as §1, §2
For another assay, the system named is cGMP. The assay is described as follows: Determination of basal cGMP levels in penis (enzyme immunoassay). The following applies: SCD mice, haptoglobin treatment, vs SCD-vehicle, P<0.05. Here is the method:
as §1
Quantitative assays for cGMP were performed using a commercial enzyme immunoassay kit (Cayman Chemical Cyclic GMP EIA kit, Ann Arbor, MI, USA). For penile cGMP content, frozen penile tissue was homogenized in 5% trichloroacetic acid and centrifuged. TCA was extracted from the supernatant with three washes of water-saturated ether. cGMP was expressed as pmol/mg tissue.

The test system of the next assay is 4-HNE. Put plainly: Western blot of penis homogenates, 4-HNE. Conditions: SCD mice, haptoglobin 400 mg/kg s.c. 1 month, vs SCD-vehicle. The method, then:
as §1, §2

Another assay concerns nNOS. Put plainly: Western blot of penis homogenates, nNOS. The following applies: SCD mice, haptoglobin 400 mg/kg s.c. 1 month; normalized to β-actin. The method, then: as §1, §2
Assay [3] relates to NADPH oxidase subunit gp91phox. Put plainly: Western blot of penis homogenates, gp91phox. Conditions: SCD mice, haptoglobin 400 mg/kg s.c. 1 month; normalized to β-actin. The method, then: as §1, §2
In the next assay the test system is 3-nitrotyrosine. Put plainly: Western blot of penis homogenates, 3-nitrotyrosine. The following applies: SCD mice, haptoglobin 400 mg/kg s.c. 1 month, vs SCD-vehicle. The method, then:
as §1, §2

The test system of another assay is ROCK2. The assay is described as follows: Western blot of penis homogenates, ROCK2. Conditions: SCD mice, haptoglobin 400 mg/kg s.c. 1 month; normalized to β-actin. The method, then:
as §1, §2

The subject of assay [4] is corpus cavernosum strips from SCD mice. The assay is described as follows: Concentration-response relaxation curves to ACh and SNP in cavernosal strips pre-contracted with phenylephrine. Here is the method:
as §1
Strips of mouse corpus cavernosum were mounted in a 7-ml organ system containing Krebs solution at 37° C., continuously bubbled with a mixture of 95% O2 and 5% CO2 (pH 7.4), and suspended between two metal hooks. One hook was connected to a force transducer and the other acted as a fixed attachment point. Tissues were allowed to equilibrate for 60 min under a resting tension of 2.5 mN. Isometric force was recorded using a PowerLab 400™ data acquisition system (Software LabChart, version 7.0, AD Instrument, MA, USA). Cumulative concentration-response curves were constructed for the muscarinic agonist acetylcholine (ACh; 10^−9 to 10^−5 M) and sodium nitroprusside (SNP; 10^−8 to 10^−4 M) in cavernosal strips pre-contracted with phenylephrine (10^−5 M). Cumulative concentration-response curves to the contractile agent phenylephrine (α1-adrenergic receptor agonist, 10^−8 to 3×10^−4 M) and KCl (3×10^−4 to 3×10^−1 M) were obtained in cavernosal strips. Nonlinear regression analysis to determine the pEC50 was carried out using GraphPad Prism (GraphPad Software, San Diego, CA, USA).

Consider “Haptoglobin: Human haptoglobin (Hp) solution, a kind gift from CSL Behring; plasma glycoprotein that binds free hemoglobin”, for which, in the assay with ROCK1, the “Protein expression of ROCK1 in penis” value was “not modified”. In addition, the “Increase of protein level of PDE5 in penis” value in the assay on PDE5 is given as “approximately 52%”. Moreover, the “Emax of KCl-induced contraction” value in assay [1] (KCl, receptor-independent) is reported as 0.30±0.07 mN. Further, the “Emax of phenylephrine-induced contraction” value in [1] (phenylephrine 10^-8 to 3x10^-4 M) worked out at 0.79±0.11 mN. The “Effect of treatment on EFS-induced relaxant responses” value in [2] is recorded as “reduced”. Also, in the assay on p-eNOS (Ser-1177), the “Protein level of p-eNOS (Ser-1177) in penis” value is “normalized”. The “Protein level of eNOS in penis” value with eNOS was “normalized”. Further, the “Increase of basal cGMP levels in penis” value with cGMP is “approximately 72%”. For the same substance, the “Reduction of protein level of 4-HNE in penile tissue” value with 4-HNE is about 28%. Moreover, the “Protein expression of nNOS in penis” value in the assay with nNOS is recorded as “not modified”. Further, in assay [3], the “Protein levels of gp91phox in penis” value is reported as “fully restored”. In addition, in the assay with 3-nitrotyrosine, the “Reduction of protein level of 3-nitrotyrosine in penile tissue” value is given as “approximately 27%”. In the assay with ROCK2, the “Protein levels of ROCK2 in penis” value is “fully restored”. The “Effect of treatment on raised SNP pEC50 value” in [4] (SCD mice, haptoglobin 400 mg/kg s.c., P<0.05) is listed as “reversed”. Also, the “Effect of treatment on Emax produced by SNP” value in assay [4] (SCD mice, haptoglobin 400 mg/kg s.c., vs SCD-vehicle) is “reduced”. In assay [4] (SCD mice, haptoglobin 400 mg/kg s.c., vs SCD-vehicle, P<0.05), the “Effect of treatment on Emax values of ACh” value is “reduced”. Moreover, the “Effect on potency (pEC50) for ACh among the groups” value in assay [4] (WT-vehicle, SCD-vehicle, SCD-haptoglobin) is listed as “No significant differences”. Moreover, in assay [4] (agonist ACh, cavernosal strips from SCD mice treated with haptoglobin 400 mg/kg s.c. Mon/Wed/Fri for 1 month, mean ± SEM), the “pEC50 of ACh relaxation curve, SCD-Haptoglobin” value stood at 7.12. Also, the “Emax (%) of ACh relaxation curve, SCD-Haptoglobin” value in assay [4] (agonist ACh, relative to phenylephrine (10^-5 M) contraction = 100%, SCD mice, haptoglobin 400 mg/kg s.c. 3x/week, 1 month, mean ± SEM) was 42 ± 6 %. Further, the “pEC50 of SNP relaxation curve, SCD-Haptoglobin” value in [4] (agonist SNP, cavernosal strips from SCD mice treated with haptoglobin 400 mg/kg s.c. Mon/Wed/Fri for 1 month, mean ± SEM) is reported as 6.08. Moreover, in [4] (agonist SNP, relative to phenylephrine (10^-5 M) contraction = 100%, SCD mice, haptoglobin 400 mg/kg s.c. 3x/week, 1 month, mean ± SEM), the “Emax (%) of SNP relaxation curve, SCD-Haptoglobin” value came out at 78 ± 4%.
